The text below walks through data of patent publication US20110136728A1, “METHODS OF INCREASING BONE FORMATION USING LEPTIN-RELATED PEPTIDES” (priority 2009, published 2011).

Molecules are shown by their SMILES. Where “and” joins values, the source holds several entries; their conditions need not be identical. Equal entries are not always repeated. Non-standard residues stand in square brackets, D forms with d. Residues, ends and D or L forms follow the SMILES beside them.

Test [1] deals with male C57BLK/6-m db/db mice. The test can be described thus: Intranasal delivery in db/db mice: body weight, food and water intake, serum glucose, insulin, osteocalcin. Format: in vivo, mouse. The method, then:
Each bar and vertical line represents mean±SEM serum glucose level (n=6).
FIG. 17. Effects of intranasal administration of mouse [D-Leu-4]-OB3 (1 mg/day, 14 days) on body weight gain in C57BLk/6-m db/db mice. […] Each point represents the mean±standard error of mean change in body weight for a group of six mice.
In the present study, the effects of intranasal administration of mouse [D-Leu-4]-OB3 in Intravail® on energy balance, serum osteocalcin, and serum insulin levels in genetically obese male C57BLK/6-m db/db mice allowed food and water ad libitum were examined. […] (See FIGS. 12 and 13). […] (See FIGS. 14 and 15).
In the present study, the effects of intranasal delivery of mouse [D-Leu-4]-OB3 in Intravail® on energy balance, glucose regulation, insulin secretion, and serum levels of osteocalcin, a specific and sensitive marker of bone formation were examined Genetically obese C57BLK/6-m db/db mice were allowed food and water ad libitum, and given either Intravail® alone or mouse [D-Leu-4]-OB3 in Intravail® for 14 days. […] Serum insulin levels in db/db mice given mouse [D-Leu-4]-OB3 were approximately 3-fold lower than those in mice receiving Intravail® alone. Mouse [D-Leu-4]-OB3 elevated serum osteocalcin in db/db mice by 28.7% over Intravail® treated control mice. […] In addition, its effects on bone turnover may also be useful in the prevention and/or reversal of at least some of the bone loss which accompanies osteoporosis, anorexia nervosa, cancer, and other wasting diseases not associated with the obesity syndrome.

Another test concerns ob/ob mouse model. The test can be described thus: Earlier study of OB3 and D-amino acid-substituted OB3 analogs: body weight gain, food and water intake, blood glucose. Format: in vivo. An excerpt: Single-point D-amino acid substitution was used to study the structure-function relationships of each amino acid residue in OB3, and to increase its efficacy. The restricted domain represented by OB3 contains a functional epitope, which has the ability to mimic at least some of the effects of leptin on energy balance and glucose homeostasis.
The design of peptide ligands involved the introduction of conformational constraints into native sequences by techniques that include, but are not limited to, D-amino acid substitution or cyclization. (Hruby and Bonner, Methods Mol Biol. 35:201-40 (1994)). Systematic replacement of L-amino acids by their D-amino acid isoforms was used to determine the stereostructural requirements of specific residues in a peptide for peptide-receptor interaction, and to assess the contribution of certain secondary structural motifs, e.g., α-helix or β-turn, to the bioactivity of the peptide. (Hruby, Biopolymers 33(7):1073-82 (1993) and Hruby, Life Sci. 52(10):845-55 (1993)). This approach increased peptide resistance to enzymatic hydrolysis, and to enhance the properties of biologically active peptides, including receptor binding, functional potency, and duration of action. (See Fauchere et al., Adv. Drug Res., 23:127-139 (1992); Doherty et al., J. Med. Chem., 36:2585-2594 (1993); Kirby et al., J. Med. Chem., 36:3802-3808 (1993); Morita et al., FEBS Lett., 353:84-88 (1994)).
(See Rozhayskaya-Arena M, et al., Endocrinology 141:2501-2517 (2000); Grasso P et al., Regulatory Pep. 101:123-129 (2001)).

Setting [2] is: 1 mg/day, 14 days, intranasal in Intravail.

On to `CC(C)C[C@@H](NC(=O)[C@H](CO)NC(=O)[C@H](CS)NC(=O)[C@@H](N)CO)C(=O)N1CCC[C@H]1C(=O)N[C@@H](CCC(N)=O)C(=O)N[C@H](C(N)=O)[C@@H](C)O` [mouse [D-Leu-4]-OB3] (H-SCS[dL]PQT-NH2; N-terminus assumed), for which, in test [1] (setting [2]), the “Body weight (% of initial)” value is reported as 104.9 ± 1.4 % of initial; the Final body weight was 37.0 ± 1.7 g; the Food intake was 6.1 g/mouse/day and 6.1 ± 0.3 g/mouse/day; the Serum insulin is 0.95 ng/mL and 0.95 ± 0.03 ng/mL. In test [1] (setting [2]), the Serum osteocalcin was 470 ng/mL and 470.0 ± 20.0 ng/mL; the Water intake is 21.2 ml/mouse/day and 21.2 ± 1.8 ml/mouse/day. Further, the “reduction of serum glucose” value in test [1] (14 days intranasal in Intravail) was found to be 61.9%. For the same compound, the “body weight increase over initial body weight (heavier)” value in test [1] (after 14 days intranasal in Intravail) was determined as 4.9%. The Initial serum glucose in test [1] (day 0) is 472 ± 7.3 mg/dL. Moreover, the Initial body weight in test [1] (day 0, 1 mg/day, 14 days, intranasal in Intravail) was found to be 35.0 ± 1.1 g. The Final serum glucose in test [1] (day 14, 1 mg/day intranasal in Intravail) is 209 ± 89.4 mg/dL. Besides, in the test with ob/ob mouse model (compared to OB3, in most of the parameters measured), the “effectiveness compared to the other D-amino acid-substituted analogs” value is “more effective than the other D-amino acid-substituted analogs”. In addition, in the test on ob/ob mouse model (mouse, in vivo), the “Water intake” value is “significantly reduced water intake”; the “anorexigenic activity compared with OB3” value is “greater anorexigenic activity than OB3”; the “antihyperglycemic effect and its time course” value is reported as “lowered blood glucose to levels seen in nondiabetic wild type mice within two days of peptide treatment”; the “potency in reducing body weight gain relative to native OB3” value was 2.6 fold.
